# According to ChEMBL document CHEMBL5674860, “Optimized Dual-Glo Assay to identify co-culture-induced drug vulnerabilities in 3D CRC models” (2024):
# What was measured:
# Type in all cases: functional, Homo sapiens
# Set-up in all cases: dose or concentration left out as unconfirmed
# Colon cancer organoid [1] = assay: Optimized Dual-Glo assay to identify co-culture induced drug vulnerabilities using donated chemical probes and chemogenomics kinase set in O06 CRC organoid and F06 CAF mono and co-culture. […] Cell viability is reported both mono and co-culture models.
# Colon cancer organoid [2] = assay: Optimized Dual-Glo assay to identify co-culture induced drug vulnerabilities using donated chemical probes and chemogenomics kinase set in O14 CRC organoid and F14 CAF mono and co-culture. […] Cell viability is reported both mono and co-culture models.
# Colon cancer organoid [3] = assay: Optimized Dual-Glo assay to identify co-culture induced drug vulnerabilities using donated chemical probes and chemogenomics kinase set in O20 CRC organoid and F20 CAF mono and co-culture. […] Cell viability is reported both mono and co-culture models.
# [4] = Culture type Co-Culture, Transduced with Lucferase2-P2A-EGFP lentivirus
# [5] = Culture type Co-Culture, Transduced with Renilla-dsRed lentivirus
# [6] = Culture type Mono-Culture, Transduced with Lucferase2-P2A-EGFP lentivirus
# [7] = Culture type Mono-Culture, Transduced with Renilla-dsRed lentivirus
Compound,Cell Viability (Colon cancer organoid [1]; [4]) [%],Cell Viability (Colon cancer organoid [1]; [5]) [%],Cell Viability (Colon cancer organoid [1]; [6]) [%],Cell Viability (Colon cancer organoid [1]; [7]) [%],Cell Viability (Colon cancer organoid [2]; [4]) [%],Cell Viability (Colon cancer organoid [2]; [5]) [%],Cell Viability (Colon cancer organoid [2]; [6]) [%],Cell Viability (Colon cancer organoid [2]; [7]) [%],Cell Viability (Colon cancer organoid [3]; [4]) [%],Cell Viability (Colon cancer organoid [3]; [5]) [%],Cell Viability (Colon cancer organoid [3]; [6]) [%],Cell Viability (Colon cancer organoid [3]; [7]) [%]
CNC(=O)c1cc(C(=O)NC2CC2)cn(Cc2ccccc2)c1=O [GSK620],111.223,132.009,81.6367,131.621,179.546,145.239,105.323,134,92.6025,100.747,72.9667,110.848
CC1CCN(c2ccnc(NCc3cn(C)cn3)n2)CC1 [TP-040],72.882,83.2209,105.865,110.509,87.8979,100.433,106.891,94.952,75.5826,95.0735,105.645,103.982
Cc1c(Nc2ccc(S(=O)(=O)N3CCN(C)CC3)cc2F)nc2ccc(Nc3cnn(C4CC4)c3)cn2c1=O,81.8172,120.859,129.193,116.74,111.5,108.059,92.684,101.792,117.664,135.679,121.681,97.2871
Cc1cc(NC(=O)c2cccc(S(F)(F)(F)(F)F)c2)cc(-n2ccn3nc(-c4cccnc4)cc23)c1 [BAY-309],84.4525,147.367,49.1708,77.7093,98.153,84.8781,155.954,76.6739,122.672,127.793,129.399,97.9255
COCCN1CCC(c2cc(CN(C)C(=O)c3cccc(Oc4ccccc4)c3)ccn2)CC1,91.2389,131.922,95.8918,124.805,94.0691,112.751,102.019,112.74,94.1045,115.605,130.999,103.56
C[C@]1(O)C[C@@H](c2nc(-c3ccc4ccc(-c5ccccc5)nc4c3)c3c(N)nccn32)C1 [LINSITINIB],53.0716,100.619,21.1574,74.7669,41.9562,109.271,38.702,83.4141,60.4709,65.9185,18.406,73.2347
O=C(NCc1ccccc1)c1ccc(S(=O)(=O)NCc2ccccc2)cc1,120.089,107.944,199.391,148.571,77.1762,97.8485,125.216,99.6349,89.1581,96.8328,97.877,137.118
CCOC(=O)Nc1cc(-c2ccc(C)c(NS(C)(=O)=O)c2)nn2c(C)nnc12,112.605,266.102,81.8905,215.442,71.1092,228.167,66.8371,176.186,38.58,177.965,39.5437,109.867
CNC(=O)c1cc(C(=O)N[C@H]2[C@@H]3COC[C@@H]32)cc2c1O[C@H](CF)[C@H]2c1ccccc1 [GSK973],110.942,170.924,57.9314,146.399,93.0111,167.902,105.165,155.71,97.8368,135.509,77.6772,131.324
Cc1cccc(-c2cnc3occ(-c4ccc(C(=O)O)c(C5CCCC5)c4)c3c2)c1,95.2844,61.5637,124.633,116.796,114.736,94.3308,126.625,90.9911,88.6258,133.429,94.6873,103.401
CC#CC(=O)N1CCC[C@H]1c1nc(-c2ccc(C(=O)Nc3ccccn3)cc2)c2c(N)nccn12 [ACALABRUTINIB],96.562,83.4698,98.0139,99.6421,70.2708,100.717,59.6403,100.701,96.1769,99.9657,56.8336,71.1135
CCCCN(Cc1ccccc1)C(=O)c1ccc(S(=O)(=O)Nc2ccccc2)cc1,64.4698,76.2121,99.0346,112.912,108.863,102.946,107.066,103.133,74.981,116.955,117.076,107.638
CCCOc1ccn2c(C(C)=O)cc(-c3ccccc3S(C)(=O)=O)c2c1,121.922,129.269,172.982,130.382,117.77,112.498,105.54,97.3869,148.391,117.742,112.445,111.137
C[C@@H]1CCc2ncc(F)cc2[C@H]2CCCN2c2ccn3ncc(c3n2)C(=O)N1 [SELITRECTINIB],101.733,118.761,174.799,120.583,80.4223,107.034,125.619,100.351,166.265,73.3915,102.231,92.0834
